This is an account of results in publication PMC2844090 (Journal of medicinal chemistry, 2009).

The target in test [1] is T1, human kynurenine aminotransferase I (hKAT I) (Homo sapiens, UniProt Q16773).
T1 sequence (Q16773 1-422): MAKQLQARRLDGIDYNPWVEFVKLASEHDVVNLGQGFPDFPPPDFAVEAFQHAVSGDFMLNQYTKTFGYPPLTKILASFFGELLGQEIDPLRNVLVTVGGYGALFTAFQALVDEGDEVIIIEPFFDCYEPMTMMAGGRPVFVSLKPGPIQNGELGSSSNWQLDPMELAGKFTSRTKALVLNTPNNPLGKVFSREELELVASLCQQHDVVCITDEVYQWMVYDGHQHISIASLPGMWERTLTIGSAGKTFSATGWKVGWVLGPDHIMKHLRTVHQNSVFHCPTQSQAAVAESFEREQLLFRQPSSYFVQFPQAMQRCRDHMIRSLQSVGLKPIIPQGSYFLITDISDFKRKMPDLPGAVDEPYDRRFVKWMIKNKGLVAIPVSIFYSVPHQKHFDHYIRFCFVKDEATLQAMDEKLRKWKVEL
Nature of the test: transamination assay, HPLC of KYNA. It is filed as biochemical.

The target of test [2] is T1, human kynurenine aminotransferase I (hKAT I). The test is described as follows: transamination assay, HPLC of KYNA. Type of test: biochemical. The source holds these as a separate data set.
For test [3] the target is unchanged. The test is described as follows: co-crystal structure at […] Å. Type of test: binding.

On to `O=C(O)/C=C/c1c[nH]c2ccccc12` [trans-3-indoleacrylic acid], for which the “transamination assay, HPLC of KYNA (0.08-10 mM)” value in test [1] is “All six of the chemicals strongly inhibited hKAT I”.

Turning to `N[C@@H](Cc1c[nH]c2ccccc12)C(=O)O` [tryptophan], the “transamination assay, HPLC of KYNA (0.08-10 mM); competing substrate” value in test [2] is “Figure 6B shows the inhibitions of tryptophan and indole-3-pyruvic acid”.

With `O=C(O)C(=O)Cc1c[nH]c2ccccc12` [indole-3-pyruvic acid], the “transamination assay, HPLC of KYNA (0.08-10 mM); competing substrate” value in test [2] is “Figure 6B shows the inhibitions of tryptophan and indole-3-pyruvic acid”.

As to `NC(CO)(CO)CO` [Tris], in test [3], the “co-crystal structure at 1.50 Å (one of two subunits)” value is “Tris lies near the PLP cofactor and that the Tris amine does not form an external aldimine with PLP”.
